Data taken from the NIST ThermoML archive (doi:10.1021/acs.jced.5b00098).
± gives the expanded uncertainty stated by the source.

Details: Crystal; visual observation

Normal melting temperature | Compound
269.50 ± 0.5 °C | O=c1cc(-c2ccccc2)c2cc(O)c(O)cc2o1 [6,7-dihydroxy-4-phenylcoumarin]
211.50 ± 0.5 °C | COc1cc2oc(=O)cc(-c3ccccc3)c2cc1O [6-hydroxy-7-methoxy-4-phenylcoumarin]
